{"source": "patent US20110151006A1", "about": "“STIMULI-RESPONSIVE HYDROGEL” (priority 2008, published 2011)", "key": {"GyrB (gyrase subunit B) [1]": {"target": "T1, GyrB (gyrase subunit B) (Escherichia coli, UniProt P0AES6)", "T1 construct": "GyrB migrates predominantly at its predicted size of 27 kDa; made in house; host or cells: E. coli BL21 STAR (DE3)", "experiment": "Ultrafiltration study of coumermycin-induced GyrB dimerization", "format": "biochemical, E. coli", "details": "50 kDa molecular weight cut-off filter; GyrB:coumermycin=2:1; GyrB without coumermycin gave 54%"}, "GyrB (gyrase subunit B) [2]": {"target": "T1, GyrB (gyrase subunit B)", "experiment": "Antibiotic-triggered GyrB dimerization, DMS crosslinking and SDS-PAGE", "format": "biochemical, E. coli", "details": "GyrB:coumermycin=2:1, mol/mol; DMS crosslinking; denaturing PAGE; dimer at 54 kDa", "method": "The gene for E. coli gyrase subunit B (gyrB) is tagged with the coding sequence for six histidine residues. The coding region is placed under the control of the phage T7-derived promoter and expressed in E. coli as a soluble cytoplasmatic protein. GyrB is purified via the hexahistidine tag using Ni^2+-based affinity chromatography. Coumermycin-induced dimerization of genetically engineered GyrB is evaluated by incubating the protein in the presence or absence of coumermycin (GyrB:coumermycin=2:1, mol/mol) with subsequent addition of the amine-specific bifunctional crosslinking agent dimethyl-suberimidate (DMS) and analysis of the complexes on denaturing polyacrylamide gel electrophoresis. […]\nConcentration of GyrB is analyzed by the Bradford method (Biorad, Muünchen, Germany, cat. no. 500-0006) using BSA as standard. […] Antibiotic-triggered dimerization of GyrB is analyzed by incubating GyrB in the presence coumermycin A1 (GyrB:coumermycin=2:1, mol/mol; Sigma, St. Louis, Mo., cat. no. C9270) for 30 min at room temperature following covalent crosslinking of the dimers by addition of dimethyl suberimidate×2HCl (DMS, SigmaAldrich, St. Louis, Mo., cat. no. 179523) at a 10-fold molar excess with respect to GyrB for 60 min at room temperature. The dimers are analyzed on SDS-PAGE. […]"}, "[3]": {"target": "T2, hexahistidine-tagged GyrB (Escherichia coli, UniProt P0AES6)", "T2 construct": "GyrB migrates predominantly at its predicted size of 27 kDa; made in house; host or cells: E. coli BL21 STAR (DE3)", "experiment": "Antibiotic-dependent hydrogel formation (GyrB released into buffer)", "parameters": "species or system E. coli", "details": "GyrB:coumermycin=2:1 or ten-fold molar excess of novobiocin; mixed with poly(AAm-co-Ni2+-NTA-AAm); 12 hours in PBS", "source_text": "The protein is subsequently mixed with poly(AAm-co-Ni^2+-NTA-AAm) at a ratio of one GyrB per 11 Ni^2+ ions chelated in the polymer backbone."}}, "data": [{"substance": "coumermycin A1", "values": [{"measurement": "GyrB protein in filtrate", "setting": "GyrB (gyrase subunit B) [1]", "result": 2.8, "unit": "%"}, {"measurement": "GyrB dimer formation", "setting": "GyrB (gyrase subunit B) [2]", "result": "substantial dimer formation"}, {"measurement": "GyrB-polymer complexes released into the buffer / hydrogel formation", "setting": "[3]", "result": "significantly reduced"}]}]}
